The Kd is the free concentration of one partner at which half of the binding sites on the other are occupied at equilibrium, for simple one-to-one binding.

This is an account of results in article PMC10475101, “Selective steroidogenic cytochrome P450 haem iron ligation by steroid-derived isonitriles” (Communications Chemistry, 2023).

The target of one series is T1, CYP17A1 (Homo sapiens, UniProt P05093).
T1 construct: made in house
T1 sequence (P05093 1-508): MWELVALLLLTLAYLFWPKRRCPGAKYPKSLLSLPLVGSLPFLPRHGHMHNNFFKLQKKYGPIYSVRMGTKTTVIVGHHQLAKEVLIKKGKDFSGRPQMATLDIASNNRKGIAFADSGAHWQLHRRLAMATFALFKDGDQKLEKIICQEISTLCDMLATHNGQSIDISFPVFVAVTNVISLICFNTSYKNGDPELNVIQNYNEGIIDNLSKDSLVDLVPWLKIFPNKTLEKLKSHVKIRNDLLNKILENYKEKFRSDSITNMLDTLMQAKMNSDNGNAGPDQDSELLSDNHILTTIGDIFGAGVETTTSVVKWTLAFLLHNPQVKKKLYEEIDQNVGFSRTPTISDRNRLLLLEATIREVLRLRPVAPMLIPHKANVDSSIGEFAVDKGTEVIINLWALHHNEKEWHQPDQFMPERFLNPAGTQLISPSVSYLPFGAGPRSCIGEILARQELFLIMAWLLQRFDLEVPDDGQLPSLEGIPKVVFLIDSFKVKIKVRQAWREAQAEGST
Description: Ligand binding assay (UV-visible difference spectra titration). The protocol: (§1) (Adapted from DeVore, et al.)[25] Ligand interaction with the heme iron was evaluated by titrating ligands into a cuvette containing purified CYP17A1[14], CYP2D6 L230D/L231R[26], or CYP3A4[27] and measured using a UV-visible scanning spectrophotometer. Enzyme was diluted to 0.2 µM in 100 mM potassium phosphate buffer (pH 7.4), 20% glycerol, and 100 mM sodium chloride and divided equally between two 5 mL cuvettes to evaluate high-affinity binding. Ligands dissolved in dimethylsulfoxide (DMSO) were added to the sample cuvette and an equal volume of DMSO to the reference cuvette. Difference spectra were recorded from 300 to 500 nm after equilibration of enzyme and ligand. Binding to the enzyme was measured as the difference in maximal and minimal absorbance: A387—A419 for pregnanolone and 3-formyl pregnanolone, and A435—A393 for compound 1 with CYP17A1; A434—A414 for compound 1 with CYP3A4 and CYP2D6. The dissociation constant and maximum spectral change were calculated using tight-binding or quadratic equation. All data fitting was accomplished using GraphPad Prism 9. Details of fitting are provided in Supplementary Information, and numerical data used to generate graphs in Figs. 2, 4 and 5 are provided in Supplementary Data 3 in Excel format.

The target in another series is T2, CYP2D6 L230D/L231R (Homo sapiens, UniProt P10635, L230D/L231R).
T2 construct: made in house
T2 sequence (P10635 whole entry L230D/L231R): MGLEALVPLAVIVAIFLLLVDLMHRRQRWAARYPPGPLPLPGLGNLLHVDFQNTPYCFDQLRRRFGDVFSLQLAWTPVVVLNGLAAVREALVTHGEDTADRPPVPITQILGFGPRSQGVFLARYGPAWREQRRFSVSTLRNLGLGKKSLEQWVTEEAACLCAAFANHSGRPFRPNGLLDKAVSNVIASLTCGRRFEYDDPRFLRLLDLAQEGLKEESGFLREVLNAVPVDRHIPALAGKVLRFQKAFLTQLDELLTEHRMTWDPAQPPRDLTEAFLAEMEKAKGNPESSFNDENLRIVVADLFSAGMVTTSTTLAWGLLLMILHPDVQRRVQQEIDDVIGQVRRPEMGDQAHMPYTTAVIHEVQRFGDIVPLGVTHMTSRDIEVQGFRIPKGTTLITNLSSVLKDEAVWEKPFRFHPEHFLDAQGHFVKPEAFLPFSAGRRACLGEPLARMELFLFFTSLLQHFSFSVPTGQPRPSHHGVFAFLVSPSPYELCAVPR
Described as above. The protocol: as §1

The target in the next series is T3, CYP3A4 (Homo sapiens, UniProt P08684).
T3 construct: made in house
T3 sequence (P08684 23-503 limits assumed): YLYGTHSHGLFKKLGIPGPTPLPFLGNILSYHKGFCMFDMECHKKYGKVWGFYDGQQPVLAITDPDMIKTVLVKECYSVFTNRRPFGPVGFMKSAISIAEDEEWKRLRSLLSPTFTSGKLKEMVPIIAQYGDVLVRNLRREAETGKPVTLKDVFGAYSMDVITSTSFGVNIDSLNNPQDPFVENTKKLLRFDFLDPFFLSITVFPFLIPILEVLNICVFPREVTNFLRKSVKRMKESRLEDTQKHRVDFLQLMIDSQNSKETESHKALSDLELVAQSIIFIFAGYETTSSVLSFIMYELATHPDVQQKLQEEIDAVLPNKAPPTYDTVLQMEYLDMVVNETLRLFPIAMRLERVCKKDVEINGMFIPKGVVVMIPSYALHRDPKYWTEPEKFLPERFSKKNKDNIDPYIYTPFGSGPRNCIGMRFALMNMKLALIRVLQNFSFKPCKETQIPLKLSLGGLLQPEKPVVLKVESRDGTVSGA
It counts as biochemical. As to conditions: concentrations up to 100 µM. How it is done:
(Adapted from Bart & Scott)[28]. Metabolic activity of CYP3A4 was evaluated by measuring metabolism of nifedipine to dehydronifedipine […], as detected by HPLC with UV detection at 254 nm. Reactions were carried out in amber microcentrifuge tubes (NFP is light sensitive) in a final volume of 150 μl. A 1:2 ratio of CYP3A4 to recombinant NADPH-cytochrome P450 reductase was mixed and incubated at room temperature for 20 min. This mixture was added to buffer (40 mM HEPES, 30 mM MgCl2, pH 7.4) containing 0.1 mM NFP and increasing concentrations of 1c (0–100 µM). Reaction vials were warmed to 37 °C for 3 min, then catalysis was initiated by adding NADPH to a final concentration of 1 mM. After 20 min, metabolism was quenched by adding 50 µL acetonitrile and placed on ice. […]
187 a baseline absorbance reading from 400 to 500 nm using a UV-visible scanning spectrophotometer, of a 1cm […]
190 phosphate buffer (pH 7.4), 20% glycerol, and 100 mM sodium chloride). A small quantity of sodium dithionite
191 (spatula tip-full) was then added to the cuvette, and the spectra were recorded periodically over time to […]
195 Metabolic activity of CYP17A1 was evaluated by measuring 17α-hydroxylation of progesterone as detected […]
212 dehydronifedipine, as detected by HPLC with UV detection at 254 nm. […]

Where “and” joins values, the source holds several entries; their conditions need not be identical. Identical values can stand only once.

As for `[C-]#[N+][C@H](C)[C@H]1CC[C@H]2[C@@H]3CC[C@H]4C[C@@H](OC=O)CC[C@]4(C)[C@H]3CC[C@]12C` [Compound 1, 3β-formyl-5α-pregnanolone-(R)-20-isonitrile], the “Soret peak shift in difference spectra” value at CYP17A1 (2:1 mixture of C20 epimers of 1) is 430 nm. Also, the “Soret peak after titration (heme spectral shift from 417 nm water-bound)” value at CYP17A1 (ferric CYP17A1, 430 nm = Fe—C isonitrile bond, 424 nm = type II Fe—N) is 430 nm. Also, the “dissociation constant estimate (tight binding equation fit)” value at CYP17A1 (protein 200 nM, 95% CI undefined to 1.7 nM) is recorded as 149 aM. Moreover, at CYP2D6 L230D/L231R (CYP2D6 versus CYP17A1), the “dissociation constant for CYP2D6 relative to CYP17A1” value worked out at 3 million. In addition, on CYP2D6 L230D/L231R (protein 200 nM, 5 cm cuvette, n = 2, 95% CI undefined –6.4 nM, read-out: dissociation constant (Kd)), the Kd was 0.49 nM and ~0.49 nM. In addition, on CYP2D6 L230D/L231R (titration of CYP2D6), the “Fe—CN—R bond formation on titration” value was “indicated the formation of the Fe—CN—R bond”. The “inhibition of CYP3A4-catalyzed nifedipine oxidation” value against CYP3A4 is listed as “no inhibition”.
